# According to US11981944B2, “Immunogenic arginase peptides” (IO Biotech ApS, priority 2016, dated 2024):
# How the values were obtained:
# Assay type in all cases: cell-based, human
# [1] = system: PBMCs from healthy donors or cancer patients; assay: IFNγ ELISPOT on PBMCs after one week peptide and IL-2 stimulation (Example 2); details: selected PBMCs from cancer patients and healthy donors; one week stimulation with IL-2; FIG. 10B, 10C
# Procedure: PBMCs from healthy donors or cancer patients were stimulated with 80 μg of arginase-derived peptides and 120 U/ml IL-2 (Peprotech, London, UK, cat. 200-02) for a week. 4-6×10^5 PBMCs were then placed in the bottom of ELISPOT plate (nitrocellulose bottomed 96-well plates by MultiScreen MAIP […]; Millipore, cat. MSIPN4W50) pre-coated with IFN-y capture Ab (Mabtech, cat. 3420-3-1000) and 1-10 μg of arginase derived peptides were added. PBMCs from each patient and donors were set up in duplicates or triplicates for peptide and control stimulations. Cells were incubated in ELISPOT plates in the presence of an antigen for 14-16 hours after which they are washed off and secondary biotinylated Ab (Mabtech, cat. 3420-6-1000) was added. After 2 h incubation unbound secondary antibody was washed off and streptavidin conjugated alkaline phosphatase (AP) (Mabtech, cat. 3310-10) was added for 1 h. Next, unbound conjugated enzyme is washed off and the assay is developed by adding BCIP/NBT substrate (Mabtech, cat. 3650-10). Developed ELISPOT plates were analysed on CTL ImmunoSpot S6 Ultimate-V analyzer using Immunospot software v5.1. Responses were calculated as the difference between average numbers of spots in wells stimulated with Arginase-1 peptides and control wells. We divided the entire arginase-1 protein sequence into overlapping 20-amino-acid-long peptides, generating a library of 31 peptides covering the whole sequence (SEQ ID NOs 18-48)). Each peptide in the library overlapped with the first 10 amino acids of the following peptide. Using this arginase peptide library and the IFNγ ELISPOT assay, we next screened PBMCs from melanoma patients and healthy donors for spontaneous responses (FIGS. 9A and 9B). The PBMCs were stimulated for one week with a pool of 3-4 adjacent 20-mer arginase library peptides and low-dose IL-2 (120 U/mL). They were then set up for an IFNγ ELISPOT assay to screen for responses against each 20-mer peptide separately. […] Among these overlapping peptides, […]-200), and Arg(191-210) spanned a 50-amino-acid-long region that was deemed a hot-spot region since nearly all patients harbored a response against one or more of these peptides (FIG. 9A). The selected eight peptides were further used to screen for spontaneous immune responses against arginase-1 in PBMCs from eight healthy donors using IFNγ ELISPOT. […] Since we most frequently observed responses against arginase-1 peptides from the hot-spot region, we next analyzed whether longer peptides covering the same sequence could be used instead of four 20-mers. […] We then divided the arginase-1 hot-spot region into two 30-mer peptides that overlapped by 10 amino acids (peptides labelled by reference to start and end position): […]-190) and […]-210). These 30-mer peptides were used to check for responses in selected PBMCs from cancer patients and healthy donors, which had previously shown responses against the 20-mer hot-spot peptides. The PBMCs were stimulated for one week with either […]-190) or […]-210) in the presence of IL-2, and were then used in IFNγ ELISPOT.
# [2] = system: arginase-specific CD4+ T-cell culture; assay: Recognition by arginase-specific CD4+ T-cell culture (ArgShort-stimulated)
# Procedure: (§1) PBMCs from healthy donors or cancer patients were stimulated with 80 μg of arginase-derived peptides and 120 U/ml IL-2 (Peprotech, London, UK, cat. 200-02) for a week. 4-6×10^5 PBMCs were then placed in the bottom of ELISPOT plate (nitrocellulose bottomed 96-well plates by MultiScreen MAIP N45; Millipore, cat. MSIPN4W50) pre-coated with IFN-y capture Ab (Mabtech, cat. 3420-3-1000) and 1-10 μg of arginase derived peptides were added. PBMCs from each patient and donors were set up in duplicates or triplicates for peptide and control stimulations. Cells were incubated in ELISPOT plates in the presence of an antigen for 14-16 hours after which they are washed off and secondary biotinylated Ab (Mabtech, cat. 3420-6-1000) was added. After 2 h incubation unbound secondary antibody was washed off and streptavidin conjugated alkaline phosphatase (AP) (Mabtech, cat. 3310-10) was added for 1 h. Next, unbound conjugated enzyme is washed off and the assay is developed by adding BCIP/NBT substrate (Mabtech, cat. 3650-10). Developed ELISPOT plates were analysed on CTL ImmunoSpot S6 Ultimate-V analyzer using Immunospot software v5.1. Responses were calculated as the difference between average numbers of spots in wells stimulated with Arginase-1 peptides and control wells.
# Arginase-specific T cell culture were established by stimulation of cancer patient PBMC with irradiated ArgShort (SEQ ID NO 9) peptide-loaded autologous DC or PBMCs. The following day IL-7 and IL-12 (PeproTech, London, UK, cat. 200-07-10 and 200-12) were added. Stimulation of the cultures were carried out every 8 days with ArgShort peptide loaded irradiated autologous DC followed by ArgShort peptide-loaded irradiated autologous PBMC. The day after peptide stimulation IL-2 […]. After 5 stimulations arginase-specific T cells were enriched using TNF-α cell enrichment kit (MiltenyiBiotec, cat. 130-091-269).
# Flow cytometry analysis was performed on a FACSCanto™ II (BD Biosciences, San Jose CA, USA). […]
# [3] = system: PBMCs from cancer patients; assay: IFNγ ELISPOT with HLA Class I / Class II blocking; details: anti-Class I W6/32 or anti-Class II Tü39; FIG. 11B
# Procedure: as §1, with “wells. […]” for “wells.”
# [4] = system: PBMCs from two healthy donors and one cancer patient; assay: Intracellular staining for IFNγ and TNFα release in PBMCs
# Procedure: Flow cytometry analysis was performed on a FACSCanto™ II (BD Biosciences, San Jose CA, USA). Intracellular staining of cell cultures was performed after the cells were stimulated with 20-mere peptides for 5 hours or 30-mere peptides for 8h (BD GolgiPlug™ cat. 555029, was added after the first hour). The cells were then stained for surface markers, then washed and permeabilized by using Fixation/Permeabilization and Permeabilization Buffer (eBioscience, cat. 00-5123-43), according to manufacturer's instructions. Antibodies used: IFNγ-APC (cat. 341117), TNFα-BV421 (cat. 562783), CD4-FITC (cat. 347413), CD8-PerCP (cat. 345774) (all from BD Biosciences). Dead cells were stained using FVS510 (564406, BD Biosciences) according to manufacturer's instructions.
# To investigate which types of T cells reacted to the peptide epitopes in the hot-spot region, we performed intracellular staining for IFNγ and TNFα release in PBMCs from two healthy donors and one cancer patient, which had shown responses against the Arg(161-190) peptide in IFNγ ELISPOT.
sequence,measurement,setting,value
"GFSWVTPCISAKDIVYIGLRDVDPGEHYIL (Peptide fragment of human Arginase 1) [Arg(161-190), 30-mer, positions 161-190 of human Arginase 1]",IFNγ ELISPOT responses against longer hot-spot peptides,[1],high responses
same,"TNFα release from CD4+ T cells, intracellular staining","[2]; 8 hours of peptide stimulation, FIG. 11C right",TNFα release from CD4+ T cells
same,recognition by T-cell culture specific against the minimal arginase epitope,"[2]; IFNγ ELISPOT and intracellular staining, FIG. 11C",recognized
same,IFNγ release in response to peptide on blocking HLA Class I or Class II,[3],partially blocked the IFNγ release
same,TNFα release from CD4+ T cells,"[4]; 8-hour incubation with peptide, FIG. 11A",detected TNFα release from CD4+ T cells
same,response from CD8+ T cells,"[4]; some samples, data not shown",minor response
